Experiment [1] is described as follows: Inhibition of metallo-betalactamase CCrA using penicillin G as substrate up to 1 mM and pH 7.
Experiment [2] can be described thus: Inhibition of metallo-betalactamase L1 using penicillin G as substrate up to 1 mM and pH 7.
The nature of experiment [3]: Inhibition of metallo-betalactamase ImiS using penicillin G as substrate up to 1 mM and pH 7.
Experiment [4] deals with T1, D-alanyl-D-alanine dipeptidase (Enterococcus faecium) (UniProt Q06241).
T1 sequence (whole entry): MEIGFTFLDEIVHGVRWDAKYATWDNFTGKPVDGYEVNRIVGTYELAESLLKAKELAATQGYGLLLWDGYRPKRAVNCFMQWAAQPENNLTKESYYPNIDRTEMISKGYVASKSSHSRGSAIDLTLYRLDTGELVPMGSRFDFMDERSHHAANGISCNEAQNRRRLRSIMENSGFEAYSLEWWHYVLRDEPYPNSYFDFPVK
Briefly: Inhibition of Enterococcus faecium VanX overexpressed in Escherichia coli BL21 (DE3) cells using D-ala-D-ala as substrate up to 5 mM preincubated for 30 mins measured after 150 secs by modified Cd-ninhydrin method.

The target of experiment [5] is T2, D-alanyl-D-alanine dipeptidase (Enterococcus faecium, UniProt Q06241).
T2 sequence (Q06241 whole entry): T1 sequence (whole entry)
Briefly: Competitive inhibition of Enterococcus faecium VanX overexpressed in Escherichia coli BL21 (DE3) cells using D-ala-D-ala as substrate preincubated for 3 mins measured after 150 secs by modified Cd-ninhydrin method.

Experiment [6] concerns the target T2, D-alanyl-D-alanine dipeptidase. Briefly: Inhibition of Enterococcus faecium VanX overexpressed in Escherichia coli BL21 (DE3) cells using D-ala-D-ala as substrate preincubated for 30 mins measured after 150 secs by modified Cd-ninhydrin method.

The source made the active and inactive calls. No cut-off for these calls is given here.

In the case of `C[C@H](N)P(=O)(O)O[C@H](CCC(=O)O)C(=O)O`, the inhibition entry in experiment [1], in experiment [2], in experiment [3] and in experiment [4] was “inactive” in each case.
Turning to `C[C@H](N)P(=O)(O)O[C@H](C)C(=O)O`, the IC50 (usually the concentration needed to halve the response being measured) in experiment [5] worked out at 760 µM. The inhibition result in experiment [1], in experiment [2] and in experiment [3] was “inactive” in each case.
On to `CC[C@H](C)[C@@H](OP(=O)(O)[C@H](C)N)C(=O)O`, for which the inhibition result in experiment [1], in experiment [2] and in experiment [3] was “inactive” each time. Besides, in experiment [6], 1310 µM corresponded to half-maximal inhibition (IC50).
With `CC(C)[C@@H](OP(=O)(O)[C@H](C)N)C(=O)O`, the inhibition result in experiment [1], in experiment [2] and in experiment [3] was “inactive” throughout. The same compound yielded an IC50 in experiment [6] of 2820 µM.
Regarding `C[C@H](N)P(=O)(O)OCC(=O)O`, the inhibition result in experiment [1], in experiment [2] and in experiment [3] was “inactive” each time. In experiment [6], this compound had an IC50 of 480 µM.
For `CC(C)C[C@@H](OP(=O)(O)[C@H](C)N)C(=O)O`, the inhibition entry in experiment [1], in experiment [2] and in experiment [3] was “inactive” each time. The compound further yielded a concentration for half-maximal inhibition (IC50) in experiment [6] of 1080 µM.
In the case of `C[C@H](N)P(=O)(O)O[C@H](Cc1ccccc1)C(=O)O`, the inhibition result in experiment [1], in experiment [2] and in experiment [3] was “inactive” each time. The compound further had an IC50 in experiment [6] of 8210 µM.

(Values after ChEMBL document CHEMBL1938304, “Synthesis, characterization and activity of new phosphonate dipeptides as potential inhibitors of VanX” (Bioorg Med Chem Lett, 2012).)
